The assay deals with MV4-11 cells. The assay is described as follows: Cell proliferation assay MV4;11 (CellTiter-Glo, 72 hours). The class given is cell-based. The settings on record: Homo sapiens; MV4;11 leukemia cell line, 72 hours; read-out: MV4; 11 IC50. Summed up:
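Luminescent CellTiter-Glo readout after 72 h culture, 37 °C, 5% CO2, expressed relative to vehicle-treated wells, with maximal inhibition taken at the highest dose. MLL-rearranged MV4-11 leukemia cells; final compound range 0.632 to 2000 nM in eight steps.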

Structures are written as SMILES.

Turning to `CC(C)N(C(=O)c1cc(F)ccc1Oc1cncnc1N1CC2(CCN(C[C@@H]3CC[C@@H](NS(=O)(=O)N(C)C)CO3)CC2)C1)[C@@H]1CCOC1` [Example 167, 2-((4-(7-(((2S,5R)-5-((N,N-Dimethylsulfamoyl)amino)tetrahydro-2H-pyran-2-yl)methyl)-2,7-diazaspiro[3.5]nonan-2-yl)pyrimidin-5-yl)oxy)-5-fluoro-N-isopropyl-N-((R)-tetrahydrofuran-3-yl)benzamide], the IC50 was less than 100 nM.
Regarding `CC(C)N(C(=O)c1cc(F)ccc1Oc1cncnc1N1CC2(CCN(C[C@@H]3CC[C@@H](NS(=O)(=O)N4CCC4)CO3)CC2)C1)[C@@H]1CCOC1` [Example 168, 2-((4-(7-(((2S,5R)-5-(Azetidine-1-sulfonamido)tetrahydro-2H-pyran-2-yl)methyl)-2,7-diazaspiro[3.5]nonan-2-yl)pyrimidin-5-yl)oxy)-5-fluoro-N-isopropyl-N-((R)-tetrahydrofuran-3-yl)benzamide], the IC50 was less than 100 nM.
Regarding `CC(C)N(C(=O)c1cc(F)ccc1Oc1cncnc1N1CC2(CCN(C[C@@H]3CC[C@@H](NS(=O)(=O)N4CCCC4)CO3)CC2)C1)[C@@H]1CCOC1` [Example 169, 5-Fluoro-N-isopropyl-2-((4-(7-(((2S,5R)-5-(pyrrolidine-1-sulfonamido)tetrahydro-2H-pyran-2-yl)methyl)-2,7-diazaspiro[3.5]nonan-2-yl)pyrimidin-5-yl)oxy)-N-((R)-tetrahydrofuran-3-yl)benzamide], the IC50 is less than 100 nM.
On to `CCN(C)S(=O)(=O)N[C@@H]1CC[C@@H](CN2CCC3(CC2)CN(c2ncncc2Oc2ccc(F)cc2C(=O)N(C(C)C)[C@@H]2CCOC2)C3)OC1` [Example 170, 2-((4-(7-(((2S,5R)-5-((N-Ethyl-N-methylsulfamoyl)amino)tetrahydro-2H-pyran-2-yl)methyl)-2,7-diazaspiro[3.5]nonan-2-yl)pyrimidin-5-yl)oxy)-5-fluoro-N-isopropyl-N-((R)-tetrahydrofuran-3-yl)benzamide], for which the IC50 is less than 100 nM.
The same measure for `CC(C)N(C(=O)c1cc(F)ccc1Oc1cncnc1N1CC2(CCN(C[C@@H]3CC[C@@H](NS(=O)(=O)NCC(F)(F)F)CO3)CC2)C1)[C@@H]1CCOC1` [Example 171, 5-Fluoro-N-isopropyl-N-((R)-tetrahydrofuran-3-yl)-2-((4-(7-(((2S,5R)-5-((N-(2,2,2-trifluoroethyl)sulfamoyl)amino)tetrahydro-2H-pyran-2-yl)methyl)-2,7-diazaspiro[3.5]nonan-2-yl)pyrimidin-5-yl)oxy)benzamide]: less than 100 nM; for `CCNS(=O)(=O)N[C@@H]1CC[C@@H](CN2CCC3(CC2)CN(c2ncncc2Oc2ccc(F)cc2C(=O)N(C(C)C)[C@@H]2CCOC2)C3)OC1` [Example 172, 2-((4-(7-(((2S,5R)-5-((N-ethylsulfamoyl)amino)tetrahydro-2H-pyran-2-yl)methyl)-2,7-diazaspiro[3.5]nonan-2-yl)pyrimidin-5-yl)oxy)-5-fluoro-N-isopropyl-N-((R)-tetrahydrofuran-3-yl)benzamide]: less than 100 nM; for `CC(C)N(C(=O)c1cc(F)ccc1Oc1cncnc1N1CC2(CCN(C[C@@H]3CC[C@@H](NS(C)(=O)=O)CO3)CC2)C1)[C@H]1CCOC1` [Example 173, 5-Fluoro-N-isopropyl-2-((4-(7-(((2S,5R)-5-(methylsulfonamido)tetrahydro-2H-pyran-2-yl)methyl)-2,7-diazaspiro[3.5]nonan-2-yl)pyrimidin-5-yl)oxy)-N-((S)-tetrahydrofuran-3-yl)benzamide]: less than 100 nM.
`CC(C)N(C(=O)c1cc(F)ccc1Oc1cncnc1N1CC2(CCN(C[C@@H]3CC[C@@H](NS(=O)(=O)C(C)C)CO3)CC2)C1)[C@H]1CCOC1` [Example 174, 5-Fluoro-N-isopropyl-2-((4-(7-(((2S,5R)-5-((1-methylethyl)sulfonamido)tetrahydro-2H-pyran-2-yl)methyl)-2,7-diazaspiro[3.5]nonan-2-yl)pyrimidin-5-yl)oxy)-N-((S)-tetrahydrofuran-3-yl)benzamide]: the IC50 is less than 100 nM.
Regarding `CCN(CC)S(=O)(=O)N[C@@H]1CC[C@@H](CN2CCC3(CC2)CN(c2ncncc2Oc2ccc(F)cc2C(=O)N(C(C)C)[C@H]2CCOC2)C3)OC1` [Example 175, 2-((4-(7-(((2S,5R)-5-((N,N-Diethylsulfamoyl)amino)tetrahydro-2H-pyran-2-yl)methyl)-2,7-diazaspiro[3.5]nonan-2-yl)pyrimidin-5-yl)oxy)-5-fluoro-N-isopropyl-N-((S)-tetrahydrofuran-3-yl)benzamide], the IC50 was less than 100 nM.
The same measure for `CC(C)N(C(=O)c1cc(F)ccc1Oc1cncnc1N1CC2(CCN(C[C@@H]3CC[C@@H](NS(=O)(=O)C4CC4)CO3)CC2)C1)[C@H]1CCOC1` [Example 176, 2-((4-(7-(((2S,5R)-5-(Cyclopropanesulfonamido)tetrahydro-2H-pyran-2-yl)methyl)-2,7-diazaspiro[3.5]nonan-2-yl)pyrimidin-5-yl)oxy)-5-fluoro-N-isopropyl-N-((S)-tetrahydrofuran-3-yl)benzamide]: less than 100 nM; for `CC(C)N(C(=O)c1cc(F)ccc1Oc1cncnc1N1CC2(CCN(C[C@@H]3CC[C@@H](NS(=O)(=O)N(C)C)CO3)CC2)C1)[C@H]1CCOC1` [Example 177, 2-((4-(7-(((2S,5R)-5-((N,N-Dimethylsulfamoyl)amino)tetrahydro-2H-pyran-2-yl)methyl)-2,7-diazaspiro[3.5]nonan-2-yl)pyrimidin-5-yl)oxy)-5-fluoro-N-isopropyl-N-((S)-tetrahydrofuran-3-yl)benzamide]: less than 100 nM.
With `CC(C)N(C(=O)c1cc(F)ccc1Oc1cncnc1N1CC2(CCN(C[C@@H]3CC[C@@H](NS(=O)(=O)N4CCCC4)CO3)CC2)C1)[C@H]1CCOC1` [Example 178, 5-Fluoro-N-isopropyl-2-((4-(7-(((2S,5R)-5-(pyrrolidine-1-sulfonamido)tetrahydro-2H-pyran-2-yl)methyl)-2,7-diazaspiro[3.5]nonan-2-yl)pyrimidin-5-yl)oxy)-N-((S)-tetrahydrofuran-3-yl)benzamide], the IC50 is less than 100 nM.
As to `CCN(C)S(=O)(=O)N[C@@H]1CC[C@@H](CN2CCC3(CC2)CN(c2ncncc2Oc2ccc(F)cc2C(=O)N(C(C)C)[C@H]2CCOC2)C3)OC1` [Example 179, 2-((4-(7-(((2S,5R)-5-((N-Ethyl-N-methylsulfamoyl)amino)tetrahydro-2H-pyran-2-yl)methyl)-2,7-diazaspiro[3.5]nonan-2-yl)pyrimidin-5-yl)oxy)-5-fluoro-N-isopropyl-N-((S)-tetrahydrofuran-3-yl)benzamide], the IC50 is less than 100 nM.
Regarding `CCNS(=O)(=O)N[C@@H]1CC[C@@H](CN2CCC3(CC2)CN(c2ncncc2Oc2ccc(F)cc2C(=O)N(C(C)C)[C@H]2CCOC2)C3)OC1` [Example 180, 2-((4-(7-(((2S,5R)-5-((N-Ethylsulfamoyl)amino)tetrahydro-2H-pyran-2-yl)methyl)-2,7-diazaspiro[3.5]nonan-2-yl)pyrimidin-5-yl)oxy)-5-fluoro-N-isopropyl-N-((S)-tetrahydrofuran-3-yl)benzamide], the IC50 was less than 100 nM.
For the compound `CC(C)N(CC#N)C(=O)c1cc(F)ccc1Oc1cncnc1N1CC2(CCN(C[C@@H]3CC[C@@H](NS(=O)(=O)N(C)C)CO3)CC2)C1` [Example 181, N-(Cyanomethyl)-2-((4-(7-(((2S,5R)-5-((N,N-dimethylsulfamoyl)amino)tetrahydro-2H-pyran-2-yl)methyl)-2,7-diazaspiro[3.5]nonan-2-yl)pyrimidin-5-yl)oxy)-5-fluoro-N-isopropylbenzamide], the IC50 is less than 100 nM.
On to `CC(C)N(CC#N)C(=O)c1cc(F)ccc1Oc1cncnc1N1CC2(CCN(C[C@@H]3CC[C@@H](NS(=O)(=O)N4CCC4)CO3)CC2)C1` [Example 182, 2-((4-(7-(((2S,5R)-5-(Azetidine-1-sulfonamido)tetrahydro-2H-pyran-2-yl)methyl)-2,7-diazaspiro[3.5]nonan-2-yl)pyrimidin-5-yl)oxy)-N-(cyanomethyl)-5-fluoro-N-isopropylbenzamide], for which the IC50 was less than 100 nM.
As for `CC(C)N(CCC#N)C(=O)c1cc(F)ccc1Oc1cncnc1N1CC2(CCN(C[C@@H]3CC[C@@H](NS(=O)(=O)N(C)C)CO3)CC2)C1` [Example 183, N-(2-Cyanoethyl)-2-((4-(7-(((2S,5R)-5-((N,N-dimethylsulfamoyl)amino)tetrahydro-2H-pyran-2-yl)methyl)-2,7-diazaspiro[3.5]nonan-2-yl)pyrimidin-5-yl)oxy)-5-fluoro-N-isopropylbenzamide], the figure is less than 100 nM.
For `CC(C)N(CCC#N)C(=O)c1cc(F)ccc1Oc1cncnc1N1CC2(CCN(C[C@@H]3CC[C@@H](NS(=O)(=O)N4CCC4)CO3)CC2)C1` [Example 184, 2-((4-(7-(((2S,5R)-5-(Azetidine-1-sulfonamido)tetrahydro-2H-pyran-2-yl)methyl)-2,7-diazaspiro[3.5]nonan-2-yl)pyrimidin-5-yl)oxy)-N-(2-cyanoethyl)-5-fluoro-N-isopropylbenzamide], the IC50 was less than 100 nM.
For the compound `CCS(=O)(=O)N[C@@H]1CC[C@@H](CN2CCC3(CC2)CN(c2ncnnc2Oc2ccc(F)cc2C(=O)N(CC(F)F)C(C)C)C3)OC1` [Example 185, N-(2,2-Difluoroethyl)-2-((5-(7-(((2S,5R)-5-(ethylsulfonamido)tetrahydro-2H-pyran-2-yl)methyl)-2,7-diazaspiro[3.5]nonan-2-yl)-1,2,4-triazin-6-yl)oxy)-5-fluoro-N-isopropylbenzamide], the IC50 is less than 100 nM.
In the case of `CC(C)N(CC(F)F)C(=O)c1cc(F)ccc1Oc1nncnc1N1CC2(CCN(C[C@@H]3CC[C@@H](NS(=O)(=O)C4CC4)CO3)CC2)C1` [Example 186, 2-((5-(7-(((2S,5R)-5-(Cyclopropanesulfonamido)tetrahydro-2H-pyran-2-yl)methyl)-2,7-diazaspiro[3.5]nonan-2-yl)-1,2,4-triazin-6-yl)oxy)-N-(2,2-difluoroethyl)-5-fluoro-N-isopropylbenzamide], the IC50 was less than 100 nM.
